Peptide text beside a SMILES is read from it. * marks the point of attachment. Cbz = O=C(OCc1ccccc1)*
Tests used:
HeLa cells = test: AV2eGFP versus scAV2eGFP expression in Hela cells with hydroxyurea; format: cell-based; details: 5 mM pretreatment; 24 hours post-infection
Protocol: A set of viral vectors was prepared of half-genome length was prepared. Four GFP-based viruses were generated for this analysis (AV2eGFP, scAV2eGFP, AV2/5eGFP, and scAV2/5eGFP that had either 4.7 kb or 2.4 kb length genomes packaged into AAV2 or AAV5 capsids. The data AAV2 capsid viruses were identical to data for rAAV5 viruses. Functional confirmation of scAAV/dsAAV structure was performed by analysis of gene conversion and gene expression rates in Hela cells, sensitivity of transduction in Hela cells to the DNA synthesis inhibitor hydroxyurea (HU), and by denaturing NaHO gel electrophoresis. Polarized airway epithelia were infected with the various vector constructs from the apical membrane in the presence and absence of applied LLnL at the time of infection. Gene expression was monitored by quantitative morphometry of GFP fluorescence at various post-infection time points.

[1] = test system: polarized human bronchial epithelial cells; format: cell-based
Protocol: Primary culture of human bronchial epithelia and reagents utilized. Primary human airway epithelial cells were collected by enzymatic digestion of bronchial samples from lung transplants, as previously described (Kondo et al., 1991; Zabner et al., 1996). Isolated primary airway cells were seeded at a density of 5×10^5 cells/cm^2 onto collagen-coated Millicell-HA culture inserts (Millipore Corp., Bedford, Mass.). Primary cultures were grown at the air-liquid interface for more than 2 weeks, by which time differentiation into a mucociliary epithelium occurs. The culture medium, used to feed only the basolateral side of the cells, contained 49% DMEM, 49% Ham's F12 and 2% Ultraser G (BioSepra, Cedex, France). Dimethyl Sulphoxide (DMSO), camptothecin (Camp), etoposide (Etop), aphidicolin (Aphi), hydroxyurea (HU) and genistein (Geni) were purchased from Sigma (St. Louis, Mo.). Tripeptidyl aldehyde proteasome inhibitors N-Acetyl-L-Leucyl-L-Leucyl-Norleucine (LLnL) and benzyloxycarbonyl-L-leucyl-L-leucyl-L-leucinal (Z-LLL) were purchased from Calbiochem-Novabiochem Corporation (La Jolla, Calif.). Ubiquitin ligase (E3) inhibitors were obtained from Bachem Bioscience Inc. (King of Prussia, Pa.). Anti-AAV capsid monoclonal antibody (Anti-VP1, 2 and 3) was purchased from American Research Products (Belmont, Mass.) and anti-ubiquitin antibody was purchased from Santa Cruz Biotechnology Inc. (Santa Cruz, Calif.).
Transduction of polarized airway epithelial cells and primary human fibroblasts. rAAV infection of fully differentiated bronchial cells was performed as described in Duan et al. (1998). For infections from the apical surface of the airway cells, 5 μl rAAV was mixed with 50 μl of culture media and applied directly onto the apical compartment of Millicell inserts (MOI=10,000 particles/cell). During apical infection, the basolateral side of the Millicell was continuously bathed in culture media. Gene transfer to the basal side was performed by inverting Millicell inserts and applying viral vector to the bottom of the supporting filter membrane in a 50 μl volume for 2 hours. Subsequently, Millicell inserts were returned to the upright position, in the continued presence of the original viral inoculum plus an additional 450 μl of media. For both apical and basolateral infections, rAAV containing media was removed after 24 hours and replaced with either fresh culture media (for the basal side) or exposed to air (for the apical side). To test the effect of different agents on the efficiency of AAV transduction in polarized airway cells, 1 μl of each solution was mixed with AAV prior to infection of airway epithelia. Agents were usually presented during the 24 hours AAV infection period unless indicated otherwise. Most of the agents were dissolved in DMSO except for hydroxyurea (dissolved in phosphate buffered saline), H-Leu-Ala-OH (dissolved in 0.9% glacial acetic acid) and H-His-Ala-OH (dissolved in 50% methanol). The working concentrations of the agents were as follows: 0.1 μM camptothecin, 10 μM etoposide, 5 μg/ml aphidicolin, 40 mM hydroxyurea, 50 μM genistein, 40 μM LLnL and 4 μM Z-LLL. When the ubiquitin ligase (E3) inhibitors (H-Leu-Ala-OH and H-His-Ala-OH) were used, airway cells were pretreated with a combination of both inhibitors at a final concentration of 2 mM for 60 minutes prior to infection, followed by the continued presence of inhibitor (0.2 mM) during the entire 24 hours infection period from the basolateral surface. Studies involving EGTA treatment were performed by transiently treating the apical membrane of polarized airway epithelia with 3 mM EGTA in water for 10 minutes (Duan et al., 1998). Following hypotonic EGTA treatment, cultures were washed twice with culture medium and infected with rAAV in the presence or absence of 40 μM LLnL. Human primary fibroblast cells (P4) were maintained in 10% fetal bovine serum (FBS), 1% penicillin and streptomycin, and 89% DMEM. […]

[2] = Toxicity of proteasome inhibitors in mice; format: in vivo, mouse; details: 10, 100, and 1000 fold higher effective doses; intra-tracheal and systemic (IV) delivery
Protocol: Long-term enhancement of rAAV transduction by proteasome inhibitor in vivo. To evaluate the potential utility of proteasome inhibitors for in vivo gene therapy, both the toxicity and efficacy of these agents for in vivo rAAV mediated gene transfer in the mouse lung was tested. To assess the toxicity of these proteasome inhibitors in mice, 10, 100, and 1000 fold higher effective doses of LLnL or Z-LLL were administered than used to induce gene transfer in polarized airway cells, using both intra-tracheal and systemic (IV) delivery. No toxicity was indicated by histologic evaluation of the lung and liver or was evidenced by the death of animals. To investigate whether these proteasome inhibitors could improve rAAV transduction in vivo, AV.LacZ (5×10^10 particles) was delivered either alone or in the presence of 400 μM Z-LLL by intranasal administration. Mouse lungs were harvested at 3, 10 and 150 days post-infection to evaluate short and long term effects. […] Targeted transgene expression was predominantly confined to the conducting airways, rather than in the parenchyma. Alveolar cells were rarely transduced. […] The range of transgene expression in distal and proximal airways was 0 to 4% and 5 to 18%, respectively.

[3] = test system: mouse lung airway epithelium; test: AV.LacZ gene transfer to mouse lung with Z-LLL (nasal aspiration, X-gal morphometry); format: in vivo; details: 400 μM Z-LLL; 3 and 10 days post infection
Protocol: In vivo studies in mice. Animal studies were performed in accordance with the institutional guidelines of the University of Iowa. To determine the effect of the proteasome inhibitor on AAV mediated gene transfer in mouse lung, 6 week-old BALB/c mice were lightly anesthetized using a methoxyflurane chamber. AV.LacZ (5×10^10 particles) was administered alone or with 400 μM Z-LLL in a 10 μl instillation by nasal aspiration as described by Walters et al. (2000). To prevent unforeseen toxicity of DMSO solvent, the proteasome inhibitor Z-LLL was dissolved in ethanol as a 40 mM stock solution and was included in the viral inoculum at 1% final concentration. Viral infection controls in the absence of Z-LLL also contained a 1% final concentration of ethanol. […] Lungs (N=3 for each condition) were embedded in OCT (optimal cutting temperature; Baxter, Warrendale, Pa.) and 15 μm serially sections were analyzed for gene transfer by calculating the percentage of positive cells in the airway epithelium. The diameter of the airway was recorded for classification (>360 μm, 260-350 μm, 160-250 μm, <150 μm) of results following morphometric analysis. Greater than 150 airway cross-sections were quantified for each experimental condition.

mouse lung = test: AV2Luc / AV2/5Luc gene transfer to BL6 mouse lung with Z-LLL and/or Dox; format: in vivo; details: 200 μM

Structure (SMILES) | effect on gene expression from AV2eGFP and scAV2eGFP (HeLa cells) | rAAV transduction from the apical surface ([1]; apical infection, data not shown) | toxicity (histologic evaluation of lung and liver, death of animals) [2] | transgene expression (X-gal staining of lung) [3] | induction of transgene expression from AV2/5 vectors (mouse lung) | augmentation in transgene expression ([1]; applied to the serosal surface along with rAAV, 2 days post infection, LLnL 40 μM)
NC(=O)NO [hydroxyurea] | significantly decreased gene expression from AV2eGFP but not scAV2eGFP virus | none of these agents facilitated rAAV transduction from the apical surface |  |  |  | 
CC(C)C[C@@H](C=O)NC(=O)[C@H](CC(C)C)NC(=O)[C@H](CC(C)C)NC(=O)OCc1ccccc1 [Z-LLL, N-carbobenzoxyl-L-leucinyl-L-leucinyl-L-leucinal] (Cbz-Leu-Leu-Leu-aldehyde) |  |  | No toxicity | no detectable transgene expression | 10 fold | A similar result was achieved

Source: patent publication US7749491B2, “Compounds and methods to enhance rAAV transduction” (priority 2003, dated 2010)
